Measured values: US10167292B2, “Benzodiazepines as bromodomain inhibitors” (Catalyst Therapeutics Pty Ltd, priority 2015, dated 2019)

Assays:
BRD-2 (Domain 1) = BRD-2 (Domain 1) (Homo sapiens (Human), UniProt P25440); test: AlphaScreen BRD binding assay, BRD-2 (Domain 1); conditions: acetyl-histone H4 peptide 2.5 nM, protein 80 nM
Description: (§1) Biological Characterization Assay Conditions Binding Assay
(§2) AlphaScreen streptavidin donor beads and AlphaScreen nickel chelate acceptor beads were added to a final concentration of 10 ug/mL each and allowed to incubate in a darkened environment for 1 h at RT. Plates were read on an EnVision plate reader (Perkin Elmer) and IC50's calculated using a four parameter non-linear curve fit.

BRD-2 (Domain 2) = BRD-2 (Domain 2) (Homo sapiens (Human), UniProt P25440); test: AlphaScreen BRD binding assay, BRD-2 (Domain 2); conditions: 160 nM protein and 1.25 nM peptide
Description: as §1, §2

HL-60 = test: Cell proliferation assay (CellTiter-Glo), HL-60; type: cell-based; conditions: Homo sapiens, HL-60 cells, 72 h
Description: (§3) The cells were prepared in the required fashion (suspension or adherent). The cells were initially washed once in the culture medium that they would be finally treated in. Following this 10 ml of the test medium was added and the cells. The mixture was pipetted gently several times.
(§4) The cells were counted and then the volume was spun down to the volume necessary for the total number of cells needed. The cells were then resuspended in the appropriate test medium to the desired concentration. In general, the final concentration of non-adherent cells was 2×10^5 cells/ml i.e. 10,000 cells per 50 μ1. Once the desired concentration had been reached, 50 µl of the cells were added to the appropriate wells and the cells were incubated for 72 h at 37° C.
(§5) CellTiter-Glo Luminescent Assay (Kit G7571—See Promega's Instruction Manual for Additional Details):
(§6) Both reagents were pre-warmed to RT. The buffer was thawed in a 37° C. water bath until it had just completely thawed. It was then left on a bench at RT for at least 30 min.
(§7) Following this the substrate and buffer were mixed together. To ensure that the substrate was dissolved, the mixture was inverted several times.
(§8) The cell culture plates were removed from the incubator and were then allowed to adjust to RT for at least 30 min.
(§9) Afterwards 40 μL of the reagent was added to 100 μL of the culture medium. […] The plates were then incubated for 10 min on the bench. The luminescence could then be read using a luminescence plate reader.

BRD-4 (Domain 1) = BRD-4 (Domain 1) (Homo sapiens (Human), UniProt O60885); test: AlphaScreen BRD binding assay, BRD-4 (Domain 1); conditions: acetyl-histone H4 peptide 2.5 nM, protein 80 nM
Description: as §1, §2

BRD-4 (Domain 2) = BRD-4 (Domain 2) (Homo sapiens (Human), UniProt O60885); test: AlphaScreen BRD binding assay, BRD-4 (Domain 2); conditions: acetyl-histone H4 peptide 2.5 nM, protein 80 nM
Description: as §1, §2

MV4; 11 = test: Cell proliferation assay (CellTiter-Glo), MV4;11; type: cell-based; conditions: Homo sapiens, MV4;11 cells, 72 h
Description: as §3, §4, §5, §6, §7, §8, §9

BRD-3 (Domain 1) = BRD-3 (Domain 1) (Homo sapiens (Human), UniProt Q15059); test: AlphaScreen BRD binding assay, BRD-3 (Domain 1); conditions: acetyl-histone H4 peptide 2.5 nM, protein 80 nM
Description: as §1
BRD binding and inhibition was assessed by measuring the interaction of biotinylated acetyl-histone H4 peptide (Anaspec #64989) with the BRD target protein utilising AlphaScreen® technology (Perkin Elmer). In a white 384-well low volume plate (Greiner #784076), 100 nL of compound series in DMSO (0.5% final concentration) was added to the BRD target protein (80 nM final). After 30 min incubation at RT, H4 peptide was added to a final concentration of 2.5 nM. AlphaScreen streptavidin donor beads and AlphaScreen nickel chelate acceptor beads were added to a final concentration of 10 ug/mL each and allowed to incubate in a darkened environment for 1 h at RT. Plates were read on an EnVision plate reader (Perkin Elmer) and IC50's calculated using a four parameter non-linear curve fit.
These conditions are identical for all BRDs screened except BRD2D2 which uses 160 nM protein and 1.25 nM peptide.

Chain of BRD-2 (Domain 2) (P25440 344-453): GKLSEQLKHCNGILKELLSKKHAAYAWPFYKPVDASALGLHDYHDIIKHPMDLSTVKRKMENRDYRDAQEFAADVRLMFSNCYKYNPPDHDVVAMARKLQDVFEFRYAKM
Chain of BRD-3 (Domain 1) (Q15059 34-140): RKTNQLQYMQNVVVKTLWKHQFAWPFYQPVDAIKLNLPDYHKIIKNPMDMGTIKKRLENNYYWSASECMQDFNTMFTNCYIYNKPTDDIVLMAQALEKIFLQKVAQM
Chain of BRD-2 (Domain 1) (P25440 74-180): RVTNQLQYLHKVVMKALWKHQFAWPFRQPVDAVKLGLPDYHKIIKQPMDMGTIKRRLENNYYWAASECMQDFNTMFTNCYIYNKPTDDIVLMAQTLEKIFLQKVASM

Compound	IC50 (BRD-2 (Domain 1))	IC50 (BRD-2 (Domain 2))	IC50 (HL-60)	IC50 (BRD-4 (Domain 1))	IC50 (BRD-4 (Domain 2))	IC50 (MV4; 11)	IC50 (BRD-3 (Domain 1))
Cc1nnn2c1-c1ccccc1N(c1ccc(Cl)cc1)C[C@@H]2C [Example 13, 7-(4-chlorophenyl)-1,5-dimethyl-6,7-dihydro-5H-benzo[f][1,2,3]triazolo[1,5-d][1,4]diazepine]	< 100 nM	< 100 nM	< 1000 nM				
CON(C)C(=O)c1ccc2c(c1)N(c1ccc(Cl)cc1)CCn1nnc(C)c1-2 [Example 48, 7-(4-Chlorophenyl)-N-methoxy-N, 1-dimethyl-6,7-dihydro-5H-benzo[f][1,2,3]triazolo[1,5-d][1,4]diazepine-9-carboxamide]	< 100 nM	< 100 nM		< 100 nM	< 100 nM		
COC(=O)c1ccc2c(c1)N(c1ccc(Cl)cc1)CCn1nnc(C)c1-2 [Example 31, methyl 7-(4-chlorophenyl)-1-methyl-5,6-dihydrotriazolo[1,5-d][1,4]benzodiazepine-9-carboxylate]			< 1000 nM			< 1000 nM	
Cc1nnn2c1-c1ccccc1N(c1ccc(Cl)cc1)C[C@H]2C [Example 16, (5R)-7-(4-chlorophenyl)-1,5-dimethyl-6,7-dihydro-5H-benzo[f][1,2,3]triazolo[1,5-d][1,4]diazepine]	< 100 nM	< 100 nM	< 1000 nM				
Cc1nnn2c1-c1ccc(-c3cnc(N)nc3)cc1N(c1ccc(Cl)cc1)CC2 [Example 12, 5-(7-(4-chlorophenyl)-1-methyl-6,7-dihydro-5H-benzo[f][1,2,3]triazolo[1,5-d][1,4]diazepin-9-yl)pyrimidin-2-amine]			< 1000 nM				
Cc1nnn2c1-c1ccc(CCN3CCOCC3)cc1N(c1ccc(Cl)cc1)CC2 [Example 30, 4-(2-(7-(4-chlorophenyl)-1-methyl-6,7-dihydro-5H-benzo[f][1,2,3]triazolo[1,5-d][1,4]diazepin-9-yl)ethyl)morpholine]	100 to 1000 nM	100 to 1000 nM	1000 to 5000 nM	100 to 1000 nM	100 to 1000 nM		100 to 1000 nM
Cc1nnn2c1-c1ccc(C(N)=O)cc1N(c1ccc(Cl)cc1)CC2 [Example 42, 7-(4-chlorophenyl)-1-methyl-6,7-dihydro-5H-benzo[f][1,2,3]triazolo[1,5-d][1,4]diazepine-9-carboxamide]				< 100 nM	< 100 nM		
Cc1nnn2c1-c1ccc(C#N)cc1N(c1ccc(Cl)cc1)CC2 [Example 47, 7-(4-chlorophenyl)-1-methyl-6,7-dihydro-5H-benzo[f][1,2,3]triazolo[1,5-d][1,4]diazepine-9-carbonitrile]				< 100 nM	< 100 nM		
Cc1nnn2c1-c1ccc(C(=O)NCc3ccccc3)cc1N(c1ccc(Cl)cc1)CC2 [Example 37, N-benzyl-7-(4-chlorophenyl)-1-methyl-6,7-dihydro-5H-benzo[f][1,2,3]triazolo[1,5-d][1,4]diazepine-9-carboxamide]				< 100 nM	< 100 nM		
Cc1nnn2c1-c1ccccc1N(c1cccc(C(O)CO)c1)CC2 (stereo not drawn) [Example 24, 1-(3-(1-methyl-5H-benzo[f][1,2,3]triazolo[1,5-d][1,4]diazepin-7(6H)-yl)phenyl)ethane-1,2-diol]	< 100 nM	< 100 nM	1000 to 5000 nM	< 100 nM	< 100 nM		< 100 nM
Cc1nnn2c1-c1ccc(C(O)C(F)(F)F)cc1N(c1ccc(Cl)cc1)CC2 (stereo not drawn) [Example 50, 1-(7-(4-Chlorophenyl)-1-methyl-6,7-dihydro-5H-benzo[f][1,2,3]triazolo[1,5-d][1,4]diazepin-9-yl)-2,2,2-trifluoroethanol]				< 100 nM	< 100 nM		
Cc1nnn2c1-c1ccc(C(=O)NC(c3ccccc3)c3ccccc3)cc1N(c1ccc(Cl)cc1)CC2 [Example 38, N-benzhydryl-7-(4-chlorophenyl)-1-methyl-6,7-dihydro-5H-benzo[f][1,2,3]triazolo[1,5-d][1,4]diazepine-9-carboxamide]	100 to 1000 nM	< 100 nM					< 100 nM
FC(F)c1nnn2c1-c1ccccc1N(c1ccc(Cl)cc1)CC2 [Example 29, 7-(4-chlorophenyl)-1-(difluoromethyl)-6,7-dihydro-5H-benzo[f][1,2,3]triazolo[1,5-d][1,4]diazepine]	> 1000 nM	100 to 1000 nM		100 to 1000 nM	100 to 1000 nM		
Cc1nnn2c1-c1ccc(C(=O)NC(C)c3ccc(F)cc3)cc1N(c1ccc(Cl)cc1)CC2 (stereo in doubt) [Example 33, 7-(4-chlorophenyl)-N—((R)-1-(4-fluorophenyl)ethyl)-1-methyl-6,7-dihydro-5H-benzo[f][1,2,3]triazolo[1,5-d][1,4]diazepine-9-carboxamide]							< 100 nM
Cc1nnn2c1-c1ccc(C(=O)NS(C)(=O)=O)cc1N(c1ccc(Cl)cc1)CC2 [Example 41, 7-(4-chlorophenyl)-1-methyl-N-(methylsulfonyl)-6,7-dihydro-5H-benzo[f][1,2,3]triazolo[1,5-d][1,4]diazepine-9-carboxamide]			1000 to 5000 nM	< 100 nM	< 100 nM	< 1000 nM	
Cc1nnn2c1-c1ccc(Br)cc1N(c1ccc(Cl)cc1)CC2C (stereo not drawn) [Example 14, 9-Bromo-7-(4-chlorophenyl)-1,5-dimethyl-6,7-dihydro-5H-benzo[f][1,2,3]triazolo[1,5-d][1,4]diazepine]			< 1000 nM				
Cc1nnn2c1-c1ccccc1N(c1ccccc1)CC2 [Example 5, 1-methyl-7-phenyl-6,7-dihydro-5H-benzo[f][1,2,3]triazolo[1,5-d][1,4]diazepine]				< 100 nM	< 100 nM		
Cc1nnn2c1-c1ccccc1N(c1cccc(Br)c1)CC2 [Example 22, 7-(3-Bromophenyl)-1-methyl-6,7-dihydro-5H-benzo[f][1,2,3]triazolo[1,5-d][1,4]diazepine]	100 to 1000 nM	< 100 nM	1000 to 5000 nM	< 100 nM	< 100 nM		< 100 nM
Cc1nnn2c1-c1ccc(C(=O)NO)cc1N(c1ccc(Cl)cc1)CC2 [Example 44, 7-(4-Chlorophenyl)-N-hydroxy-1-methyl-6,7-dihydro-5H-benzo[f][1,2,3]triazolo[1,5-d][1,4]diazepine-9-carboxamide]	< 100 nM	< 100 nM		< 100 nM	< 100 nM		
Cc1nnn2c1-c1ccccc1N(c1ccc(Cl)cc1)CC2CCO (stereo not drawn) [Example 21, 2-(7-(4-chlorophenyl)-1-methyl-6,7-dihydro-5H-benzo[f][1,2,3]triazolo[1,5-d][1,4]diazepin-5-yl)ethanol]	100 to 1000 nM	< 100 nM	1000 to 5000 nM	< 100 nM	< 100 nM		< 100 nM
Cc1nnn2c1-c1ccc(Cn3cccn3)cc1N(c1ccc(Cl)cc1)CC2 [Example 20, 9-((1H-pyrazol-1-yl)methyl)-7-(4-chlorophenyl)-1-methyl-6,7-dihydro-5H-benzo[f][1,2,3]triazolo[1,5-d][1,4]diazepine]				< 100 nM	< 100 nM		< 100 nM
Cc1nnn2c1-c1ccc(-c3nn[nH]n3)cc1N(c1ccc(Cl)cc1)CC2 [Example 51, 7-(4-chlorophenyl)-1-methyl-9-(2H-tetrazol-5-yl)-6,7-dihydro-5H-benzo[f][1,2,3]triazolo[1,5-d][1,4]diazepine]			> 5000 nM	< 100 nM	< 100 nM	< 1000 nM	
Cc1nnn2c1-c1ccccc1N(c1ccc(Cl)cc1)CC2 [Example 11, 7-(4-chlorophenyl)-1-methyl-6,7-dihydro-5H-benzo[f][1,2,3]triazolo[1,5-d][1,4]diazepine]			1000 to 5000 nM				
C=Cc1cccc(N2CCn3nnc(C)c3-c3ccccc32)c1 [Example 23, 1-Methyl-7-(3-vinylphenyl)-6,7-dihydro-5H-benzo[f][1,2,3]triazolo[1,5-d][1,4]diazepine]	100 to 1000 nM	< 100 nM	1000 to 5000 nM	< 100 nM	< 100 nM		< 100 nM
